Measurements reported in patent US6447818B1, “Compositions containing compounds with adrenergic activity and vegetable extracts of Crataegus and gingko biloba for the treatment of overweight and obesity” (Ambros Pharma S.R.L., priority 1999, dated 2002).

Test system: systemic arterial pressure and cardiac frequency in the rat
Assay: Hypertensive and tachycardic effects of adrenergic substances and extracts in the anesthetized rat
Assay type: in vivo
Settings: i.v., anesthetized male Wistar rats, dose-dependent
Description: 1. Effects of Crataegus Extract and Oterin® on Hypertension Induced with Ephedrine or with Extract of Ephedra Sinica Standardized in Ephedrine or Induced with Synephrine, or with Extract of Citrus Aurantium Standardized in Synephrine in the Rat
Male Wistar rats (Charles River, Calco-CO) weighing 180-200 grams were used. The animals were anesthetized with ethylurethane (1.2-1.5 g/kg i.p.) and prepared for the recording of systemic arterial pressure (via the carotid artery) and cardiac frequency. Individual examples of the registration (copies of the original tracings) and the summary of the mean data (±SEM) are given in FIGS. 1-4.
The dosages of synephrine leading to hypertensive activity were slightly higher (0.5-2 mg/kg i.v.) (FIGS. 2A, 3C). […] Tachycardia was induced in the same dose-dependent manner (FIGS. 3A, 3B).

CNCC(O)c1ccc(O)cc1 (stereo not shown) [synephrine]
dosages inducing hypertensive effects on the arterial pressure: 0.5 to 2 mg/kg
